Source: US20240327354A1, “GRAM-NEGATIVE BACTERIA EFFLUX PUMP INHIBITORS” (INSTITUT NATIONAL DE LA SANTÉ ET DE LA RECHERCHE MÉDICALE, priority 2021, published 2024)

Legend:
[1] = test system: E. coli BW25113; assay: Assay 4: boosting of antibiotic activity by EPI example 37 in E. coli; assay type: cell-based, Escherichia coli; details: MIC of the named antibiotic boosted by 100 μM example 37
Text: (§1) Escherichia coli BW25113 (CGSC 7636) and its derivatives E. coli ΔtolC (JW5503-1, ΔtolC732::kan, CGSC 11430), E. coli ΔacrA (JW0452-3, ΔacrA748::kan, CGSC 11843) and E. coli ΔacrB (JW0451-2, ΔacrB747::kan, CGSC 8609) were obtained from E. coli Genetic Stock Center (CGSC, New Haven, Connecticut) and originated from the Keio Collection (Baba T et al, Mol Sys Biol, 2006). Klebsiella pneumoniae (LMG 2095/ATCC 13883) and K. pneumoniae (ATCC43816), Pseudomonas aeruginosa (PAO1), Acinetobacter baumannii (LMG 1025, ATCC 17978), were obtained from ATCC or BCCM/LMG Bacteria Collection. All bacteria were grown and tested in cation-adjusted Mueller-Hinton broth (CAMHB; BD Difco) at 37° C. For conservation, log phase bacteria were frozen (−80° C.) in CAMHB supplemented with 15% glycerol.
(§2) Measurement of the Impact of EPI Example 37 on the Boosting of Antibiotic Activity in E. coli, A. baumannii, K. pneumoniae and P. aeruginosa.
(§3) Bacterial suspensions were then prepared in CAMHB from a growing pre-culture, (E. coli [OD600=0.001], A. baumannii [OD600=0.001], K. pneumoniae [OD600=0.001] and P. aeruginosa [OD600=0.001]), and added to the microplate using a ViaFill. Microplate containing bacterial cultures were then grown (5 h or 24 h, 37° C.) and bacterial viability determined by either resazurin reduction or OD600.

[2] = test system: K. pneumoniae ATCC13883; assay: Assay 4: boosting of antibiotic activity by EPI example 37 in K. pneumoniae ATCC13883; assay type: cell-based, Klebsiella pneumoniae; details: MIC of the named antibiotic boosted by 100 μM example 37
Text: as §1, §2, §3

[3] = test system: A. baumannii LMG; assay: Assay 4: boosting of antibiotic activity by EPI example 37 in A. baumannii; assay type: cell-based, Acinetobacter baumannii; details: MIC of the named antibiotic boosted by 100 μM example 37
Text: as §1, §2, §3

[4] = test system: A. baumannii LMG 1025 (ATCC 17978); assay: Assay 2: growth inhibition of A. baumannii by sub-inhibitory chloramphenicol in combination with examples (resazurin reduction); assay type: cell-based; details: Acinetobacter baumannii; antibiotic alone, no EPI
[5] = test system: K. pneumoniae ATCC43816; assay: Assay 4: boosting of antibiotic activity by EPI example 37 in K. pneumoniae ATCC43816; assay type: cell-based, Klebsiella pneumoniae; details: MIC of the named antibiotic boosted by 100 μM example 37
Text: as §1, §2, §3

[6] = test system: A. baumannii LMG 1025 (ATCC 17978); assay: Assay 3: growth inhibition of A. baumannii by sub-inhibitory novobiocin in combination with examples (resazurin reduction); assay type: cell-based; details: Acinetobacter baumannii; antibiotic alone, no EPI

SMILES | E. coli BW25113 Fold Boosted MIC By 100 μM example 37 [1] | K. pneumoniae ATCC13883 Fold Boosted MIC By 100 μM example 37 [2] | A. baumannii LMG Fold Boosted MIC By 100 μM example 37 [3] | MIC90 [4] | K. pneumoniae ATCC43816 Fold Boosted MIC By 100 μM example 37 [5] | MIC90 [6]
O=C(N[C@H](CO)[C@H](O)c1ccc([N+](=O)[O-])cc1)C(Cl)Cl [chloramphenicol] | *** (*** = 8 fold +) | ** (** = 4-7.9 fold) | * (* = 2-3.9 fold) | 25 to 100 µg/mL | * (* = 2-3.9 fold) | –
CO[C@@H]1[C@@H](OC(N)=O)[C@@H](O)[C@H](Oc2ccc3c(O)c(NC(=O)c4ccc(O)c(CC=C(C)C)c4)c(=O)oc3c2C)OC1(C)C [novobiocin] | *** (*** = 8 fold +) | *** (*** = 8 fold +) | – | – | ** (** = 4-7.9 fold) | 12.5 µg/mL
